These results are taken from paper PMC5238433 (Scientific Reports, 2017).

“Also recorded” adds a separate entry of the source.

In test [1] the test system is APJ homodimer. Nature of the test: MALDI-TOF MS of immunoprecipitated APJ complex after treatment with HIV TAT-TMD interference peptides. Particulars: peptide 4 μM, 60 min, 37 °C; for species detected by MALDI-TOF MS / effect of peptide on APJ homodimerization: cells transfected with APJ, anti-APJ immunoprecipitation, MALDI-TOF linear positive mode, mass range 4–10 kDa, sinapic acid; for binding to APJ (peptides encoding TMDs, MS): MALDI-TOF. It is filed as binding, human. The text has this:
TMDs are important for the formation of head-to-head interfaces in class A GPCR dimers. To identify dimerization interfaces in the seven TMDs of APJ, the effects of cell-penetrating interference peptides (containing the sequence of the hydrophobic transmembrane helices) on APJ homodimerization were examined by MS.
Figure 5 The effects of interference peptides on apelin receptor (APJ) homodimerization as measured by matrix assisted laser desorption […] time-of-flight (MALDI-TOF) mass spectrometry.
The identity of the TMD peptide sequences was analyzed with liquid chromatography (LC)-MS.
MS was performed to identity APJ dimer interfaces in samples treated with TMD peptides. Cells were transfected with APJ and, 48 h later, treated with or without the indicated HIV TAT-TMD fused peptides (4 μM) for 60 min at 37 °C. Extracted proteins were immunoprecipitated using an anti-APJ antibody. Protein A/G PLUS-agarose beads were incubated with proteins for 2 h and washed four times with lysis buffer. The APJ complex was eluted from beads as described previously. Then, the endogenous APJ complex was analyzed with an AXIMA matrix-assisted laser desorption/ionization time-of-flight (MALDI-TOF) system (Shimazdu) in linear positive mode. The mass range was 4–10 kDa and the matrix was Sinapic Acid (SA), 10 mg/ml (50% acetonitrile (ACN), 50% H2O, 0.1% […] (TFA)). The results were calibrated with a Shimadzu MALDI calibration kit (Laser BioLabs).

Test [2] concerns APJ dimer (APJ-Rluc / APJ-EGFP). Nature of the test: BRET, effect of interference peptides on APJ homodimers. As to conditions: for effect on APJ dimer BRET signals / reduction of APJ dimer BRET signals: CHO cells, APJ-Rluc:APJ-EGFP 1:3, peptide 4 μM, 37 °C, four independent experiments in triplicate; for reduction of APJ dimer BRET signals: P < 0.01, one range for TMD1, 2, 3 and 4; for disruption of APJ (homo)dimerization (statement in words): interference peptides 4 μM, in vitro, by BRET and MS. It is filed as cell-based, human. The text has this:
Figure 7 The effect of interference peptides on apelin receptor (APJ) dimers. […] BRET[1] was detected as described above.

Test [3] has as its system APJ homodimers (APJ-Rluc / APJ-EGFP). Nature of the test: BRET, effect of agonist/antagonist treatment on APJ homodimerization. The format is cell-based, human. As to conditions: CHO cells co-expressing APJ-Rluc and APJ-EGFP (1:1); concentration not given; four independent experiments in triplicate. The method, then:
We further assessed APJ interactions by co-immunoprecipitation (Co-IP), BRET[1], and Förster resonance energy transfer (FRET). […] BRET studies were performed to confirm APJ homodimerization.
Figure 2 Assessment of apelin receptor (APJ) dimerization using co-immunoprecipitation (Co-IP) and bioluminescence resonance energy transfer (BRET) assays. (A) Assessment of APJ homodimerization with Co-IP. Chinese hamster ovary (CHO) cells were either not transfected (mock) or transfected with HA-APJ, Myc-APJ, or both (co-transfection). HA-APJ and Myc-APJ were also mixed (mix). Immunoprecipitated samples were resolved by SDS-PAGE and immunoblotted with an anti-Myc antibody (upper panel). […] (B) Assessment of APJ homodimerization with BRET[1]. (C) BRET saturation curves. (D) Assessment of effects of agonist-treatment on dimerization by BRET[1]. For BRET, four independent experiments were performed with triplicate samples and the results were expressed as the mean ± SEM of four experiments ([…] versus control group; NS, not significant versus unstimulated cells).
(§1) To monitor constitutive APJ interactions, CHO cells were transfected with APJ-Rluc and APJ-EGFP plasmids at a ratio of 1:1, 1:2, 1:3, 1:4, 1:5, and 1:6 to express a constant amount of donor-labeled protein with increasing amounts of acceptor-labeled protein. At 24 h post-transfection, cells were trypsinized and plated on a 96 well microplate for 24 h in HEPES-buffered phenol red-free medium (Invitrogen, Life Technologies). Coelenterazine h (5 μM; Promega) was added for BRET measurements using a Tristar LB941 plate reader (Berthold) with an Rluc filter (400–475 nm) and a EGFP filter (500–550 nm). To monitor the induced interactions of APJ, BRET signals were measured as described above, with slight modifications. […] To measure the effects of interference peptides on APJ dimers, CHO cells were co-transfected with APJ-Rluc and APJ-EGFP (1:3) and incubated with interference peptides corresponding to TMD1, TMD2, TMD3, TMD4, TMD5, TMD6, and TMD7 at 37 °C (4 μM), and BRET[1] detected as described above.
In general terms: BRET reads energy transfer from a luciferase to a nearby fluorophore.

In test [4] the test system is APJ dimers. The experiment in a line: BiFC-BRET, Gα-Rluc8, APJ-VN173 and APJ-VC155, G protein activation by APJ dimers. The format is cell-based, human.
Description: To explore the novel signaling of APJ dimers, we examined the signaling of APJ dimers using BiFC-BRET. […] Cells expressing Gα-Rluc8 and APJ-Venus served as a positive control, and two negative controls (Gα-Rluc8 and APJ-VN173, Gα-Rluc8 and APJ-VC155A) were also introduced. […] (Fig. S5). […] In addition, we have measured the expression levels of donor[23] and acceptor before experiment (Fig. 10).
Kinetics of ligand-induced BRET between Gα-Rluc8 (8 subtypes), APJ-VN173, and APJ-VC155. […] (A) Gαi1-Rluc8, APJ-VN173, and APJ-VC155; (B) Gαi2-Rluc8, APJ-VN173, and APJ-VC155; (C) Gαi3-Rluc8, APJ-VN173, and APJ-VC155; (D) Gαq-Rluc8, APJ-VN173, and APJ-VC155; (E) Gαs-Rluc8, APJ-VN173, and APJ-VC155; (F) Gαo-Rluc8, APJ-VN173, and APJ-VC155; (G) Gα12-Rluc8, APJ-VN173, and APJ-VC155; H. Gα13-Rluc8, APJ-VN173, and APJ-VC155.
APJ-VN173 and APJ-VC155 were generated by fusing either the N-terminal fragment of Venus (Venus N: amino acids 1–172) or the C-terminal fragment of Venus (Venus C: amino acids 156–239) to the C-terminus of the wild-type (wt) full-length apelin receptor. Gαi1-Rluc8, Gαi2-Rluc8, Gαi3-Rluc8, Gαq-Rluc8, Gαoa-Rluc8, and Gαs-Rluc8, pET-21a(+)-GFP, FLAG-BirA-APJ, and HA-AP-APJ were constructed as described previously.
as §1

The mark [5] stands for this setting: APJ dimers (APJ-VN173 + APJ-VC155), CHO cells, 1 μM apelin-13, 30 min.

As for “IFVNMYASVFCLTGLSFDRYLAIYGRKKRRQRRR [TMD3, HIV TAT-fused interference peptide derived from human APJ transmembrane domain 3]”, in test [1], the “species detected by MALDI-TOF MS / effect of peptide on APJ homodimerization” value is “TMD3, TMD3 dimers, TMD3 tetramers, APJ, [APJ + TMD3], APJ dimers, and [APJ + TMD3] dimers were detected”; the “binding to APJ (peptides encoding TMDs, MS)” value (“binding to APJ” for short) is listed as “can bind to APJ”. In addition, in test [2], the “effect on APJ dimer BRET signals” value is reported as “significantly reduced APJ dimer BRET signals”, the “reduction of APJ dimer BRET signals” value is 55–75% and the “disruption of APJ (homo)dimerization (statement in words)” value (“disruption of APJ (homo)dimerization” for short) was “disrupted APJ dimerization; also recorded: can effectively disrupt the formation of APJ homodimers; also recorded: disrupted APJ homodimerization in vitro”.
For the substance “LMNIFPYCTCISYVNSCLNPFLYYGRKKRRQRRR [TMD7, HIV TAT-fused interference peptide derived from human APJ transmembrane domain 7]”, the “species detected by MALDI-TOF MS / effect of peptide on APJ homodimerization” value in test [1] is “lacked the effect demonstrated by TMD1, 2, 3, and 4; also recorded: TMD7, APJ, and APJ dimers were detected”. Moreover, in test [2], the “effect on APJ dimer BRET signals” value is recorded as “no significant effect”; the “disruption of APJ (homo)dimerization” value was “but not TMD5, 6, and 7, disrupted APJ dimerization”.
As for “VSSTTVGFVVPFTIMLTCYFFIAYGRKKRRQRRR [TMD5, HIV TAT-fused interference peptide derived from human APJ transmembrane domain 5]”, the “species detected by MALDI-TOF MS / effect of peptide on APJ homodimerization” value in test [1] is “lacked the effect demonstrated by TMD1, 2, 3, and 4; also recorded: TMD5, APJ, and APJ dimers were detected”. For the same substance, in test [2], the “effect on APJ dimer BRET signals” value is on record as “no significant effect”; the “disruption of APJ (homo)dimerization” value is “but not TMD5, 6, and 7, disrupted APJ dimerization”.
As to “YGRKKRRQRRRFIASLAVADLTFVVTLPLWATYT [TMD2, HIV TAT-fused interference peptide derived from human APJ transmembrane domain 2]”, in test [1], the “species detected by MALDI-TOF MS / effect of peptide on APJ homodimerization” value is “TMD2, TMD2 dimers, TMD2 tetramers, APJ, [APJ + TMD2], APJ dimers, and [APJ + TMD2] dimers were detected”; the “binding to APJ” value is reported as “can bind to APJ”. In test [2], the “effect on APJ dimer BRET signals” value is recorded as “significantly reduced APJ dimer BRET signals”, the “reduction of APJ dimer BRET signals” value was 55–75% and the “disruption of APJ (homo)dimerization” value was “disrupted APJ dimerization; also recorded: can effectively disrupt the formation of APJ homodimers; also recorded: disrupted APJ homodimerization in vitro”.
“YGRKKRRQRRRRLLSIIVVLVVTFALCWMPYHLV [TMD6, HIV TAT-fused interference peptide derived from human APJ transmembrane domain 6]”: in test [1], the “species detected by MALDI-TOF MS / effect of peptide on APJ homodimerization” value is “lacked the effect demonstrated by TMD1, 2, 3, and 4; also recorded: TMD6, APJ, and APJ dimers were detected”. For the same substance, in test [2], the “effect on APJ dimer BRET signals” value is given as “no significant effect”; the “disruption of APJ (homo)dimerization” value was “but not TMD5, 6, and 7, disrupted APJ dimerization”.
Turning to “YGRKKRRQRRRVSGAVATAVLWVLAALLAMPVMV [TMD4, HIV TAT-fused interference peptide derived from human APJ transmembrane domain 4]”, in test [1], the “species detected by MALDI-TOF MS / effect of peptide on APJ homodimerization” value is “TMD4, TMD4 dimers, TMD4 tetramers, APJ, [APJ + TMD4], APJ dimers, and [APJ + TMD4] dimers were detected”; the “binding to APJ” value was “can bind to APJ”. In addition, in test [2], the “effect on APJ dimer BRET signals” value is “significantly reduced APJ dimer BRET signals”, the “reduction of APJ dimer BRET signals” value is given as 55–75% and the “disruption of APJ (homo)dimerization” value is recorded as “disrupted APJ dimerization; also recorded: can effectively disrupt the formation of APJ homodimers; also recorded: disrupted APJ homodimerization in vitro”.
As for [Ala13]apelin-13, the “BRET signal versus unstimulated cells (APJ homodimer formation)” value in test [3] is reported as “not significantly different to those of unstimulated cells”.
Consider apelin-13, for which the “BRET signal versus unstimulated cells (APJ homodimer formation)” value in test [3] is recorded as “not significantly different to those of unstimulated cells”. In test [4] (setting [5]), the “G protein activation, Gα12” value is “not Gαi1, Gαi2, Gαs, Gα12, Gα13, and Gαo”; the “G protein activation, Gα13” value is “not Gαi1, Gαi2, Gαs, Gα12, Gα13, and Gαo”; the “G protein activation, Gαi1” value is “not Gαi1, Gαi2, Gαs, Gα12, Gα13, and Gαo”; the “G protein activation, Gαi2” value is “not Gαi1, Gαi2, Gαs, Gα12, Gα13, and Gαo”. In test [4] (setting [5]), the “G protein activation, Gαi3” value was “activate only Gαi3 and Gαq”; the “G protein activation, Gαo” value is “not Gαi1, Gαi2, Gαs, Gα12, Gα13, and Gαo”; the “G protein activation, Gαq” value is “activate only Gαi3 and Gαq”; the “G protein activation, Gαs” value is “not Gαi1, Gαi2, Gαs, Gα12, Gα13, and Gαo”. For the same substance, the “ligand-induced BRET change, cells expressing APJ tagged with VN173 and VC155” value in test [4] (Gα-Rluc8 (8 subtypes), CHO cells, 1 μM apelin-13) was “an increase in BRET was observed only for Gαi3 and Gαq”. The “ligand-induced BRET change, negative controls” value in test [4] (Gα-Rluc8 with APJ-VN173 only or APJ-VC155 only, 1 μM apelin-13) was “No changes in BRET were observed”.
